Source: patent US20230087994A1, “TARGETED BIFUNCTIONAL DEGRADERS” (YALE UNIVERSITY, priority 2019, published 2023)

Assays:
PC3 cells = assay: Human prostate cancer PC3 tumor growth in mice; format: in vivo
Procedure: The ability of MIF-GN3 to mediate the depletion of MIF in a therapeutically relevant disease model was investigated. […] An experiment was conducted to determine whether the bifunctional molecule MIF-GN3 can deplete sufficient human MIF from serum to slow PC3 tumor growth. Mice were injected with an aliquot of PC3 cells, and the size of the resultant tumors as well as the levels of human MIF in serum were monitored over five weeks. […] Five weeks after the initial PC3 cell injection, the first of the mice reached maximal tumor size ([…]) and was sacrificed (FIG. 138). […] The decrease in human MIF levels mediated by MIF-GN3 is consistent with a mechanism of action in which MIF-GN3 mediates the depletion and degradation of circulating MIF protein. While the α-MIF antibody would not necessarily be expected to decrease the levels of human MIF, it is possible that the antibody mediates MIF neutralization in a manner which masks its signal as determined by ELISA. Alternatively, the α-MIF antibody may mediate depletion or degradation of huMIF by some endocytic mechanism. Another possible explanation is that the α-MIF antibody decrease serum levels of active human MIF to such an extent at early time points that PC3 cells proliferate much more slowly, and therefore fewer cells are actively secreting human MIF.
Mice were sacrificed when their tumor volumes reached 1000 mm^3. […] At this same time point, less than 25% of the mice in any other arm had survived.

human MIF [1] = biological target: T1, human MIF (Homo sapiens, UniProt P14174); assay: Depletion of injected recombinant human MIF from serum in mice; format: in vivo; parameters: injected into mice; conditions: for depletion of human MIF protein from serum: 10 mpk, 30 minutes, FIG. 135
T1 sequence (P14174 2-115 limits assumed): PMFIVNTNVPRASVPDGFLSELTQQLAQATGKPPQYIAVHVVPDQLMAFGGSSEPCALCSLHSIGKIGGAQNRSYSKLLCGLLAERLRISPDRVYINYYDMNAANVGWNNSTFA
Procedure: In vivo human MIF depletion experiments were undertaken to determine whether MIF-GN3 can mediate the depletion of injected recombinant human MIF from serum in mice. Mice were injected with five μg of the human MIF protein. In this experiment, one group of mice was also injected with a single 10 mpk dose of MIF-GN3 along with human MIF protein. It was observed that after four hours, the average level of human MIF in serum in the PBS-treated mice was 1.76 ng/mL (FIG. 134). In mice treated with 10 mpk MIF-GN3, however, the concentration of human MIF in serum was 0.68 ng/mL. One day after the initial injection, human MIF levels had reached background levels for both conditions. […] It was hypothesized that, due to the short half-life of human MIF in serum, investigating human MIF levels at earlier time points may be more informative.
Next, an experiment was performed to determine whether MIF-GN3 could enhance MIF clearance at time points earlier than four hours. Mice were coinjected with recombinant human MIF and 10 mpk MIF-GN3 via either i.p. or i.v. routes. For the PBS control arms, human MIF was injected with PBS. It was observed that in the absence of MIF-GN3, there was a spike in huMIF levels in circulation after 30 minutes (FIG. 135). In the presence of MIF-GN3, however, levels of MIF protein remained low at 30 minutes and no spike in its concentration was observed. By two hours, the levels of human MIF in circulation decreased to background levels. […] In a further experiment, whether an inhibitor of the MIF protein (3w) is able to mediate the protein's depletion from serum was determined. A bifunctional molecule that mediates the depletion of α-DNP antibody from serum was also assayed as a negative control. Neither of these molecules was expected to mediate the formation of a ternary complex between human MIF protein and ASGPR.
(§1) In order to confirm that mice injected with one or ten mpk MIF-GN3 had received the injection, and that the observed stability of MIF concentrations in MIF-GN3 treated mice was not the result of injection error, 200 μg of α-DNP antibody was coinjected with the MIF protein in this experiment. […] An investigation of the ability of MIF-GN3 to mediate the depletion of endogenous mouse MIF in vivo was next undertaken. Mice were treated with either PBS or 10 mpk of MIF-GN3. […] One possible explanation for this finding is that MIF protein may be synthesized rapidly, and any increase in degradation mediated by MIF-GN3 may not be of a large enough magnitude to impact the protein's level in serum.

human MIF [2] = biological target: T1, human MIF; assay: Depletion of human MIF from cell culture supernatant (sandwich ELISA); format: cell-based; parameters: host or cells: exogenous protein added to cell culture; conditions: for removal of MIF from supernatant: after 48 hours
Procedure: The ability of bifunctional MIF-binding molecules to mediate the depletion of human MIF from cell culture was investigated. In these assays, human MIF was present at a concentration of 100 nM, and a sandwich ELISA assay was utilized to measure the concentration of human MIF remaining in the cell culture supernatant. The closely related bifunctional molecules MIF-GN3, MIF-PEG2-GN3, and MIF-PEG4-GN3 were used, as well as the structurally dissimilar molecule MIF-NVS-PEG3-GN3. […] Based on the ease of its synthesis and its efficacy in this experiment, MIF-GN3 was utilized for further studies. It was next investigated whether the MIF inhibitor 3w mediates MIF depletion from cell culture supernatant. […] When cells were treated with 3w, no depletion of exogenous MIF protein was observed after 24 hours (FIG. 128B).

mouse MIF = biological target: T2, mouse MIF (Mus musculus, UniProt P34884); assay: Depletion of endogenous mouse MIF in vivo; parameters: species or system mice; conditions: 10 mpk, single dose; FIG. 137
T2 construct: mediate the depletion of endogenous mouse MIF in vivo; from tissue; host or cells: mouse serum (in vivo)
Procedure: as §1

HepG2 cells [3] = assay: Subcellular localization of endocytosed MIF protein in HepG2 cells; format: cell-based, human; conditions: 12 hours; FIG. 133
Procedure: In order to investigate the subcellular localization of endocytosed MIF protein, colocalization studies were performed in HepG2 cells. After 12 hours of MIF-GN mediated endocytosis, several punctae displaying MIF-derived fluorescence were present in each cell.

[4] = Pharmacokinetics of MIF-GN3 in male nude mice; format: in vivo; conditions: one mpk dose
Source text: The ability of MIF-GN3 to mediate the depletion of injected human MIF from serum in mice was studied. First, the pharmacokinetics of the bifunctional molecule were investigated.

HepG2 cells [5] = assay: MIF-GN3-mediated endocytosis of fluorescently labeled human MIF by HepG2 cells
Procedure: Human MIF protein was fluorescently labeled with Alexa 488 NHS ester, then incubated with HepG2 cells in the presence of varying levels of MIF-GN3.
Next, inhibitors of various endocytic pathways were utilized to determine if MIF-GN3 mediates MIF endocytosis in a manner consistent with ASGPR (FIG. 132).

SMILES: CC(=O)N[C@H]1[C@H](OCCOCCOCCNC(=O)CCOCC(COCCC(=O)NCCOCCOCCO[C@@H]2O[C@H](CO)[C@H](O)[C@H](O)[C@H]2NC(C)=O)(COCCC(=O)NCCOCCOCCO[C@@H]2O[C@H](CO)[C@H](O)[C@H](O)[C@H]2NC(C)=O)NC(=O)CNC(=O)CCCOc2ccc3nc(-c4cn(-c5ccc(O)c(F)c5)nn4)ccc3c2)O[C@H](CO)[C@H](O)[C@@H]1O [MIF-GN3]
- PC3 tumor growth (PC3 cells; 1 mpk): delay in tumor growth
- PC3 tumor growth (PC3 cells; 10 mpk): not found to decrease tumor growth
- human MIF protein in serum (PC3 cells; MIF-GN3 at 1 mpk, FIG. 139): decreased levels of human MIF protein
- survival (PC3 cells; eight weeks after the initial PC3 cell injection, MIF-GN3 at 1 mpk, FIG. 140): 80%
- depletion of human MIF protein from serum (human MIF [1]; i.p.): significant depletion
- depletion of human MIF protein from serum (human MIF [1]; i.v.): significant depletion
- concentration of human MIF in serum (human MIF [1]; four hours, single 10 mpk dose, five μg human MIF (PBS 1.76 ng/mL; difference not significant), FIG. 134): 0.68 ng/mL
- human MIF levels in serum (human MIF [1]; one mpk, 40 and 60 minute time points, FIG. 136): significant decrease
- concentration of human MIF in serum (human MIF [1]; ten mpk, 40 and 60 minutes, FIG. 136): significant decreses
- removal of MIF from supernatant (human MIF [2]; 200 nM): 56.0%
- removal of MIF from supernatant (human MIF [2]; 1 μM): 67.0%
- depletion of human MIF from cell culture supernatant (human MIF [2]; human MIF 100 nM, 24 hours, FIG. 128A): effective at mediating the depletion of human MIF
- mouse MIF concentrations in serum (mouse MIF): No significant decrease
- colocalization of MIF protein with LAMP2 (HepG2 cells [3]): near-complete colocalization
- overlap of MIF punctae with EEA1 (HepG2 cells [3]): did not overlap
- half-life in serum [4]: 25.8 min
- maximum plasma concentration [4]: 586.87 ng/mL
- time of maximum plasma concentration [4]: 15 min
- fluorescence relative to cells not treated with bifunctional molecule (HepG2 cells [5]; 10 nM MIF protein, 200 nM MIF-GN3, FIG. 131): 4 fold
- MIF uptake compared to lower concentrations (HepG2 cells [5]; 5.00 μM MIF-GN3, 100 nM MIF protein): slight decrease in MIF uptake
- MIF-GN3 concentration of maximal intracellular fluorescence (HepG2 cells [5]; highest concentration investigated, FIG. 130): 1.0 µM
